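Cells were grown in 96-well plates and exposed to each compound for 48 hours at five concentrations; endpoints were interpolated linearly between bracketing concentrations, or set to the highest concentration if not reached. Definition used: TGI = concentration required for complete inhibition of growth.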
Assays:
Experiment in all cases: inhibition of tumour cell growth, NCI panel, 48 h
[1] = test system: RPMI-8226 leukemia
[2] = test system: COLO 205 colon
[3] = test system: U251 CNS
[4] = test system: M14 melanoma
[5] = test system: HCT-116 colon
[6] = test system: PC-3 prostate
[7] = test system: SK-MEL-2 melanoma
[8] = test system: MDA-MB-435
[9] = test system: HOP-62 NSCLC
[10] = test system: CAKI-1 renal
[11] = test system: TK-10 renal
[12] = test system: CCRF-CEM leukemia
[13] = test system: A498 renal
[14] = test system: T-47D breast
[15] = test system: OVCAR-4 ovarian
[16] = test system: UACC-62 melanoma
[17] = test system: NCI-H23 lung

SMILES | TGI [1] | TGI [2] | TGI [3] | TGI [4] | TGI [5] | TGI [6] | TGI [7] | TGI [8] | TGI [9] | TGI [10] | TGI [11] | TGI [12] | TGI [13] | TGI [14] | TGI [15] | TGI [16] | TGI [17]
O=c1[nH]c(=O)n(COCc2ccccc2)c2ccsc12 | > 100 µM | > 100 µM | > 100 µM | > 100 µM | > 100 µM | > 100 µM | > 100 µM | > 100 µM | > 100 µM | > 100 µM | > 100 µM | > 100 µM | > 100 µM | > 100 µM | > 100 µM | – | –
O=C(NC1(c2cc3ccccc3s2)CCCCC1)C1CCC1 | > 100 µM | > 100 µM | > 100 µM | > 100 µM | > 100 µM | > 100 µM | > 100 µM | > 100 µM | > 100 µM | > 100 µM | > 100 µM | > 100 µM | > 100 µM | > 100 µM | > 100 µM | > 100 µM | > 100 µM
CC(C)OC(=O)c1ccc(CCC2=CC(=O)C=CC2=O)cc1 | 24.2 µM | 22.1 µM | 37.8 µM | 39 µM | 27 µM | 26.1 µM | 43.1 µM | 39.8 µM | 47.4 µM | 4.26 µM | 22.4 µM | 10.9 µM | 45.3 µM | 4.45 µM | 29.6 µM | 28.8 µM | 31.3 µM
CCOC(=O)c1nc2ccc(C(F)(F)F)cc2nc1NCc1ccc(OC)cc1 | > 100 µM | > 100 µM | > 100 µM | > 100 µM | > 100 µM | > 100 µM | > 100 µM | > 100 µM | > 100 µM | > 100 µM | > 100 µM | > 100 µM | > 100 µM | > 100 µM | > 100 µM | > 100 µM | > 100 µM
COc1ccc(C2NC(=S)Nc3c2c(=O)oc2c3ccc3ccccc32)cc1 (stereo not given) | > 100 µM | > 100 µM | > 100 µM | > 100 µM | > 100 µM | > 100 µM | > 100 µM | > 100 µM | > 100 µM | > 100 µM | > 100 µM | > 100 µM | > 100 µM | > 100 µM | > 100 µM | > 100 µM | > 100 µM
O=C1/C(=C\Oc2ccc(F)cc2)N2CCC1CC2 | > 100 µM | > 100 µM | > 100 µM | > 100 µM | > 100 µM | > 100 µM | > 100 µM | > 100 µM | > 100 µM | > 100 µM | > 100 µM | > 100 µM | > 100 µM | > 100 µM | > 100 µM | > 100 µM | > 100 µM
Cc1cc(S(=O)(=O)Nc2n[nH]c(Nc3ccc(Cl)cc3)n2)c(S)cc1Cl | > 100 µM | > 100 µM | > 100 µM | > 100 µM | > 100 µM | > 100 µM | > 100 µM | > 100 µM | > 100 µM | > 100 µM | > 100 µM | > 100 µM | > 100 µM | > 100 µM | > 100 µM | > 100 µM | > 100 µM
COc1ccc(N=NC(=O)NC(Cc2ccccc2)C(=O)O)cc1 (stereo not given) | > 100 µM | > 100 µM | > 100 µM | > 100 µM | > 100 µM | > 100 µM | > 100 µM | > 100 µM | > 100 µM | > 100 µM | > 100 µM | > 100 µM | > 100 µM | > 100 µM | > 100 µM | > 100 µM | > 100 µM
CCCCNC(=O)c1cc2c(cc1Cl)Sc1nccn1S2(=O)=O | > 100 µM | > 100 µM | > 100 µM | > 100 µM | > 100 µM | > 100 µM | > 100 µM | > 100 µM | > 100 µM | 34.3 µM | > 100 µM | > 100 µM | > 100 µM | > 100 µM | > 100 µM | > 100 µM | > 100 µM
Cc1ccc(NC(Nc2ccc(C)cc2C)=C(C(Cl)=C(Cl)Cl)[N+](=O)[O-])c(C)c1 | 52.8 µM | 32 µM | – | 21.3 µM | 26.7 µM | 25 µM | – | 17.2 µM | 34.2 µM | 37.4 µM | 33 µM | 15.2 µM | 36.3 µM | 32.1 µM | 33.2 µM | 31.9 µM | 20 µM
O=C(CC(=O)N1N=C(N2CCCCC2)CC1c1ccccc1)Nc1ccccc1 (stereo not given) | – | > 100 µM | > 100 µM | > 100 µM | > 100 µM | > 100 µM | > 100 µM | > 100 µM | > 100 µM | > 100 µM | > 100 µM | > 100 µM | > 100 µM | > 100 µM | > 100 µM | > 100 µM | > 100 µM
Oc1ccc(O)c(CNc2ccc(C(O)C(F)(F)F)cc2)c1 (stereo not given) | – | 37.8 µM | > 100 µM | 35.5 µM | 32.2 µM | > 100 µM | 88 µM | 47.4 µM | 43 µM | 29.7 µM | 33.1 µM | 33.5 µM | > 100 µM | 61.5 µM | 30.3 µM | 35.8 µM | 56.9 µM
CC(NC(=O)/C(=C/c1ccccc1)NC(=O)c1ccccc1)C(=O)O (stereo not given) | > 100 µM | > 100 µM | > 100 µM | > 100 µM | > 100 µM | > 100 µM | > 100 µM | > 100 µM | > 100 µM | > 100 µM | – | > 100 µM | > 100 µM | > 100 µM | – | > 100 µM | > 100 µM
CN(C)CCCN1C(=S)N(CCCN(C)C)c2c3ccccc3nc3c([N+](=O)[O-])ccc1c23 | 50.6 µM | 4.8 µM | 20.7 µM | 26.8 µM | 16 µM | > 42.4 µM | 34.8 µM | 23.7 µM | 47 µM | 19.7 µM | 24.2 µM | > 100 µM | 22.9 µM | 31.6 µM | 27.9 µM | 24.3 µM | 23.7 µM

Source: PubChem BioAssay (NCI)
